Entries after “also recorded” stand apart in the source; their conditions may differ. Structures can show the parent of a compound that is named as a salt. Where two headings read alike, the source gives them in different places. Marks after values point to notes of the source that are not given here.
Columns and labels:
[1] = type: in vivo, human; conditions: for Total AUC: extrapolated to infinity; for half-life: both, human, plasma, oral, t½; for Cmax ratio (Day2) / (Day1), arithmetic mean / Cmax ratio (Day2) / (Day1), geometric mean / Cmax ratio (Day6) / (Day1), arithmetic mean / Cmax ratio (Day6) / (Day1), geometric mean / Total AUC ratio (Day2) / (Day1), arithmetic mean / Total AUC ratio (Day2) / (Day1), geometric mean / Total AUC ratio (Day6) / (Day1), arithmetic mean / Total AUC ratio (Day6) / (Day1), geometric mean / Truncated AUC ratio (Day2) / (Day1), arithmetic mean / Truncated AUC ratio (Day2) / (Day1), geometric mean / Truncated AUC ratio (Day6) / (Day1), arithmetic mean / Truncated AUC ratio (Day6) / (Day1), geometric mean: favipiravir co-administration vs control; for Truncated AUC: 0–12 h
[2] = type: in vivo, human
[3] = system: acetaminophen glucuronide formation (pooled human hepatic S9); assay: Inhibition of acetaminophen glucuronide formation in pooled human hepatic S9; type: in vitro ADME; conditions: pooled human hepatic S9, acetaminophen 2 mM; favipiravir up to 3000 µM, T-705M1 3–300 µM
[4] = system: acetaminophen sulfate formation (sulfation); assay: Inhibition of acetaminophen sulfate formation in pooled human hepatic S9; type: in vitro ADME; conditions: both, pooled human hepatic S9, probe acetaminophen (2 mM)
[5] = Day 2, + acute favipiravir, mean (± SE), n = 28
[6] = Day 6, + extended favipiravir, mean (± SE), n = 28
[7] = 650 mg, Day 1, acetaminophen alone (control), mean (± SE), n = 28
[8] = Day 1, acetaminophen alone (control), mean (± SE), n = 28

Row | Total AUC [1, 5] | Total AUC [1, 6] | half-life [1, 7] [h] | half-life [1, 5] [h] | Cmax ratio (Day2) / (Day1), arithmetic mean [1] | Cmax ratio (Day2) / (Day1), geometric mean [1] | Cmax ratio (Day6) / (Day1), arithmetic mean [1] | Cmax ratio (Day6) / (Day1), geometric mean [1] | Total AUC ratio (Day2) / (Day1), arithmetic mean [1] | Total AUC ratio (Day2) / (Day1), geometric mean [1] | Total AUC ratio (Day6) / (Day1), arithmetic mean [1] | Total AUC ratio (Day6) / (Day1), geometric mean [1] | Truncated AUC ratio (Day2) / (Day1), arithmetic mean [1] | Truncated AUC ratio (Day2) / (Day1), geometric mean [1] | Truncated AUC ratio (Day6) / (Day1), arithmetic mean [1] | Truncated AUC ratio (Day6) / (Day1), geometric mean [1] | Structure (SMILES) | Inhibition of acetaminophen glucuronide formation [3] | other results
1 | 99.3 (± 5.1) µg ml^–1 h | 109.0 (± 7.1) µg ml^–1 h | 3.3 | 3.5 | 1.19* | 1.18 | 1.26* | 1.22 | 1.23* | 1.22 | 1.35* | 1.32 | 1.23* | 1.21 | 1.34* | 1.31 | CC(=O)Nc1ccc(O[C@@H]2O[C@H](C(=O)O)[C@@H](O)[C@H](O)[C@H]2O)cc1 [Acetaminophen glucuronide] |  | 
2 | 21.2 (± 2.1) µg ml^–1 h | 20.1 (± 2.3) µg ml^–1 h |  |  | 0.52* | 0.51 | 0.52* | 0.47 | 0.84* | 0.8 | 0.81 | 0.72 | 0.71* | 0.7 | 0.65* | 0.6 | CC(=O)Nc1ccc(OS(=O)(=O)O)cc1 [Acetaminophen sulfate] |  | Cmax ([1]; Day 1, acetaminophen 650 mg oral alone (control), mean (± SE), n = 28): 4.8 (± 0.4) µg ml^–1; tmax ([1]; Day 1, acetaminophen 650 mg oral alone (control), n = 28): 1.00 (± 0.33) h; Truncated AUC [1, 8]: 22.4 (± 1.7) µg ml^–1 h; t½ [1, 8]: 3.4 (± 0.1) h; Truncated AUC [1, 5]: 16.0 (± 1.3) µg ml^–1 h; t½ [1, 5]: 5.5 (± 0.6) h; tmax ([1]; Day 2, acetaminophen 650 mg oral + acute favipiravir, n = 28): 1.51 (± 0.1) h; Truncated AUC [1, 6]: 14.6 (± 1.6) µg ml^–1 h; t½ [1, 6]: 5.3 (± 0.4) h; tmax ([1]; Day 6, acetaminophen 650 mg oral + extended favipiravir, n = 28): 1.27 (± 0.09) h; Projected total urinary excretion ([2]; Day 1, acetaminophen 650 mg alone (control), mean (± SE), n = 28): 22 (± 2) % of dose
3 | 39.3 (± 3.1) µg ml^–1 h | 37.4 (± 2.5) µg ml^–1 h | 2.8 | 3 | 1.07 | 1.03 | 1.17 | 1.08 | 1.20* | 1.17 | 1.19* | 1.14 | 1.19* | 1.17 | 1.19* | 1.14 | CC(=O)Nc1ccc(O)cc1 [Acetaminophen, reference compound] |  | Effect of favipiravir co-administration on Cmax ([1]; acute (day 2) and extended (day 6) favipiravir vs day 1): not significantly changed; also recorded: no significant effect; Dose excreted in urine as intact acetaminophen ([2]; on average): less than 10 % of the dose
4 |  |  |  |  |  |  |  |  |  |  |  |  |  |  |  |  | NC(=O)c1nc(F)c[nH]c1=O [Favipiravir, reference compound] | did not inhibit | IC50 at 15 min [4]: 150 µM
5 |  |  |  |  |  |  |  |  |  |  |  |  |  |  |  |  | NC(=O)c1nc(F)c(=O)[nH]c1O [T‐705M1] | did not inhibit; also recorded: no effect | 

— publication PMC4631180 (British Journal of Clinical Pharmacology, 2015)
